Measurements from patent publication US20020015729A1, “COLONIC DELIVERY OF WEAK ACID DRUGS” (priority 1996, published 2002).

Key:
[1] = Dissolution of ridogrel and sodium ridogrel from hard gelatin capsules, USP apparatus 2, 100 rpm, 900 mL phosphate buffer; assay type: physicochemical; conditions: 10 mg in size 2 hard gelatin capsule, pH 5, 6 and 7
Protocol: Into each of three size 2 hard gelatin capsules was weighed 10 mg of ridogrel. Into another three capsules was weighed 10 mg of the sodium ridogrel lyophilisate. The dissolution of ridogrel and sodium ridogrel into 900 mL of phosphate buffer at pH 5, 6 and 7 was tested (USP apparatus 2, 100 rpm).

[2] = Solubility of the drug in the colonic pH range; assay type: physicochemical; conditions: pH 4.5 to 8.0

| dissolution rate as a function of pH [1] | dissolution rate as a function of pH ([1]; listed as sodium salt of ridogrel) | solubility in the colonic pH range [2] | SMILES |
| --- | --- | --- | --- |
| largely independent of pH | greatly improved dissolution rate |  | O=C([O-])CCCCON=C(c1cccnc1)c1cccc(C(F)(F)F)c1.[Na+] [sodium ridogrel] |
|  |  | low | O=C(O)CCCCO/N=C(/c1cccnc1)c1cccc(C(F)(F)F)c1 [ridogrel, (E)-5-[[[3-pyridinyl[3-(trifluoromethyl)phenyl]methylene]amino]oxy]pentanoic acid] |
